The values that follow are results of earlier work, collected in paper PMC7489895 (Biochemical Journal, 2020).

One series relates to MondoA. As to conditions: skeletal myoblasts, in response to insulin; ref Ahn et al. [30].
The next series has as its system human skeletal muscle. As to conditions: ref Ahn et al. [30].
In a further series the target is importin α (Mus musculus, UniProt P52293). As to conditions: read-out: KD, NLS - importin α.

As for `COc1ccc(-c2csc(NC(=O)c3ccc(OCC(=O)N4CCOCC4)c(OC)c3)n2)cc1` [SBI-477], the “effect on nuclear localization of MondoA” value in the series on MondoA is listed as “inhibits the nuclear localization of Mondo A”. Moreover, in the series with human skeletal muscle, the “effect on intramuscular lipid accumulation” value is on record as “inhibits intramuscular lipid accumulation”.

What is called Kd is the equilibrium constant for the complex coming apart. As to “K^155RPAATKKAGQAKKKK^170 (KRPAATKKAGQAKKKK; NLS; UniProt P05221 155-170, looked up, fragment) [Nucleoplasmin]”, the Kd in the series with importin α was 190 ± 20 nM.

In the case of P^126KKKRKV^132 [SV40], at importin α, the Kd is 310 ± 150 nM.

Take R^617KCYEAGMTLGARKLKKL^634: the equilibrium dissociation constant (Kd) with importin α was 5000 ± 100 nM.
